Biological target: T1, human β3-AR (Homo sapiens, UniProt P13945)
T1 construct: expressed in transfected cells; host or cells: CHO (Chinese hamster ovary) cells, stably transfected
Test: cAMP functional agonist assay (LANCE TR-FRET) in CHO cells expressing cloned human β3-AR
Format: cell-based
Settings: for EC50: CHO cells stably expressing cloned human β3-adrenoceptor, cAMP release, read-out: Human β3-AR Agonism EC50; for Fold drop in potency vs. 2-chloropyridine analog: EC50 of comparative example divided by EC50 of corresponding 2-chloropyridine compound; for Human β3-AR Agonist Activity (%): percent maximum activation relative to isoproterenol
Procedure: The ability of compounds to activate the human β3-AR receptor was measured using a CHO cell line stably expressing the cloned human β1-, β2-, and β3-adrenoceptors (β-AR). […] To quantify the amount of cAMP released following β-AR activation, the LANCE cAMP kit (Perking Elmer), a time-resolved fluorescence resonance energy transfer immunoassay, was used. Compounds were serially diluted in DMSO and an aliquot added to either 384-well or 96-well micro titer plates in assay buffer (5 mM HEPES, 0.1% BSA in Hank's Balanced Salt Solution). […] Following 30 min incubation at room temperature, the cells were lysed by the addition of LANCE detection buffer which contained a europium-labeled cAMP tracer. Fluorescence was measured following one hour incubation at room temperature using a Perking Elmer Envision plate reader, exciting at 340 nm and measuring emission at 615 nm and 665 nm. For each assay, a cAMP standard curve was included and used to convert fluorescence readings directly to cAMP amounts. The values were then normalized to isoproterenol, a known full agonist of β-AR, which was titrated in every assay and the EC50 determined using a custom in-house data analysis package. Along with EC50, the percent maximum activation relative to isoproterenol is reported.
The cAMP production is measured using a homogenous time-resolved fluorescence resonance energy transfer immunoassay (LANCE™, Perkin Elmer) according to the manufacture's instructions. Chinese hamster ovary (CHO) cells, stably transfected with the cloned β-adrenergic receptor (β1, β2 or β3) are harvested after 3 days of subculturing. Harvesting of cells is done with Enzyme-free Dissociation Media (Specialty Media). Cells are then counted and resuspended in assay buffer (Hank's Balanced salt solution supplemented with 5 mM HEPES, […]) containing a phosphodiesterase inhibitor (IBMX, 0.6 mM). The reaction is initiated by mixing 6,000 cells in 6 μL with 6 μL Alexa Fluor labeled cAMP antibody (LANCE™ kit) which is then added to an assay well containing 12 μL of compound (diluted in assay buffer to 2× final concentration). The reaction proceeds for 30 minutes at RT and is terminated by the addition of 24 ul detection buffer (LANCE™ kit). The assay plate is then incubated for 1 h at RT and time-resolved fluorescence measured on a Perkin Elmer Envision reader or equivalent. The unknown cAMP level is determined by comparing fluorescence levels to a cAMP standard curve.
The non-selective, full agonist β-adrenergic ligand isoproterenol is used at all three receptors to determine maximal stimulation. […] Data are analyzed using Microsoft Excel and Graphpad Prism or an internally developed data analysis software package. […]

T1 sequence (P13945 whole entry): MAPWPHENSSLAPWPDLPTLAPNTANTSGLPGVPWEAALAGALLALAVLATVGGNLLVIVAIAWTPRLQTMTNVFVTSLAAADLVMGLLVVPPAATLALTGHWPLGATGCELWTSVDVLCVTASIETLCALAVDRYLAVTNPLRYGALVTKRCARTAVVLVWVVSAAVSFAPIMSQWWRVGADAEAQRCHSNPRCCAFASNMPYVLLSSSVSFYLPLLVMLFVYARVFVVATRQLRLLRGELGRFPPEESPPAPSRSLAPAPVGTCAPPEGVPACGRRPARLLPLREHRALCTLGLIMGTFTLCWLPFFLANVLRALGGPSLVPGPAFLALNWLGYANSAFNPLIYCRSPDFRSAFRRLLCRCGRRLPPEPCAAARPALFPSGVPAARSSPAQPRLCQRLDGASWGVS

EC50 [nM]	Fold drop in potency vs. 2-chloropyridine analog [fold]	Human β3-AR Agonist Activity (%)	Structure (SMILES)
26	4.0	116	CCOc1cc(CN(C)C(=O)c2ccc(C[C@@H]3CC[C@H]([C@H](O)c4ccccc4)N3)cc2)n[nH]1 [Example 11-B, N-((5-ethoxy-1H-pyrazol-3-yl)methyl)-4-(((2S,5R)-5-((R)-hydroxy(phenyl)methyl)pyrrolidin-2-yl)methyl)-N-methylbenzamide]
13	–	95	CCc1[nH]nc(CN(C)C(=O)c2ccc(C[C@@H]3CC[C@H]([C@H](O)c4ccc(Cl)nc4)N3)cc2)c1C [Example 12-A, 4-(((2S,5R)-5-((R)-(6-chloropyridin-3-yl)(hydroxy)methyl)pyrrolidin-2-yl)methyl)-N-((5-ethyl-4-methyl-1H-pyrazol-3-yl)methyl)-N-methylbenzamide]
18	1.5	120	CCc1[nH]nc(CN(C)C(=O)c2ccc(C[C@@H]3CC[C@H]([C@H](O)c4ccccc4)N3)cc2)c1C [Example 12-B, N-((5-ethyl-4-methyl-1H-pyrazol-3-yl)methyl)-4-(((2S,5R)-5-((R)-hydroxy (phenyl)methyl)pyrrolidin-2-yl)methyl)-N-methylbenzamide]
2	–	99	CN(Cc1n[nH]c2c1CCC2)C(=O)c1ccc(C[C@@H]2CC[C@H]([C@H](O)c3ccc(Cl)nc3)N2)cc1 [Example 13-A, 4-(((2S,5R)-5-((R)-(6-chloropyridin-3-yl)(hydroxy)methyl)pyrrolidin-2-yl)methyl)-N-methyl-N-((1,4,5,6-tetrahydrocyclopenta[c]pyrazol-3-yl)methyl)benzamide]
3	1.5	113	CN(Cc1n[nH]c2c1CCC2)C(=O)c1ccc(C[C@@H]2CC[C@H]([C@H](O)c3ccccc3)N2)cc1 [Example 13-B, 4-(((2S,5R)-5-((R)-hydroxy(phenyl)methyl)pyrrolidin-2-yl)methyl)-N-methyl-N-((1,4,5,6-tetrahydrocyclopenta[c]pyrazol-3-yl)methyl)benzamide]
55	19.5	101	CN(Cc1n[nH]c2c1CCCC2)C(=O)c1ccc(C[C@@H]2CC[C@H]([C@H](O)c3cccnc3)N2)cc1 [Example 14-H, 4-(((2S,5R)-5-((R)-hydroxy(pyridin-3-yl)methyl)pyrrolidin-2-yl)methyl)-N-methyl-N-((4,5,6,7-tetrahydro-1H-indazol-3-yl)methyl)benzamide]

The next lines start with the compound.

Structure (SMILES)	EC50 [nM]	Fold drop in potency vs. 2-chloropyridine analog [fold]	Human β3-AR Agonist Activity (%)
CC(C)c1cc(CN(C)C(=O)c2ccc(C[C@@H]3CC[C@H]([C@H](O)c4ccccc4)N3)cc2)n[nH]1 [Example 7-B, 4-(((2S,5R)-5-((R)-hydroxy(phenyl)methyl)pyrrolidin-2-yl)methyl)-N-((5-isopropyl-1H-pyrazol-3-yl)methyl)-N-methylbenzamide]	188	3.2	110
CN(Cc1cc(C2CC2)[nH]n1)C(=O)c1ccc(C[C@@H]2CC[C@H]([C@H](O)c3ccc(Cl)nc3)N2)cc1 [Example 8-A, 4-(((2S,5R)-5-((R)-(6-chloropyridin-3-yl)(hydroxy)methyl)pyrrolidin-2-yl)methyl)-N-((5-cyclopropyl-1H-pyrazol-3-yl)methyl)-N-methylbenzamide]	20	–	103
CN(Cc1cc(C2CC2)[nH]n1)C(=O)c1ccc(C[C@@H]2CC[C@H]([C@H](O)c3ccccc3)N2)cc1 [Example 8-B, N-((5-cyclopropyl-1H-pyrazol-3-yl)methyl)-4-(((2S,5R)-5-((R)-hydroxy(phenyl)methyl)pyrrolidin-2-yl)methyl)-N-methylbenzamide]	39	2.0	103
COCc1cc(CN(C)C(=O)c2ccc(C[C@@H]3CC[C@H]([C@H](O)c4ccc(Cl)nc4)N3)cc2)n[nH]1 [Example 9-A, 4-(((2S,5R)-5-((R)-(6-chloropyridin-3-yl)(hydroxy)methyl)pyrrolidin-2-yl)methyl)-N-((5-(methoxymethyl)-1H-pyrazol-3-yl)methyl)-N-methylbenzamide]	3	–	93
COCc1cc(CN(C)C(=O)c2ccc(C[C@@H]3CC[C@H]([C@H](O)c4ccccc4)N3)cc2)n[nH]1 [Example 9-B, 4-(((2S,5R)-5-((R)-hydroxy(phenyl)methyl)pyrrolidin-2-yl)methyl)-N-((5-(methoxymethyl)-1H-pyrazol-3-yl)methyl)-N-methylbenzamide]	15	5.5	102
COCc1cc(CN(C)C(=O)c2ccc(C[C@@H]3CC[C@H]([C@H](O)c4ccc(OC(F)F)cc4)N3)cc2)n[nH]1 [Example 9-E, 4-(((2S,5R)-5-((R)-(4-(difluoromethoxy)phenyl)(hydroxy)methyl)pyrrolidin-2-yl)methyl)-N-((5-(methoxymethyl)-1H-pyrazol-3-yl)methyl)-N-methylbenzamide]	108	39.6	76
COCc1cc(CN(C)C(=O)c2ccc(C[C@@H]3CC[C@H]([C@H](O)c4ccc(Cl)cc4)N3)cc2)n[nH]1 [Example 9-G, 4-(((2S,5R)-5-((R)-(4-chlorophenyl)(hydroxy)methyl)pyrrolidin-2-yl)methyl)-N-((5-(methoxymethyl)-1H-pyrazol-3-yl)methyl)-N-methylbenzamide]	4	1.6	97
COCc1cc(CN(C)C(=O)c2ccc(C[C@@H]3CC[C@H]([C@H](O)c4cccnc4)N3)cc2)n[nH]1 [Example 9-H, 4-(((2S,5R)-5-((R)-hydroxy(pyridin-3-yl)methyl)pyrrolidin-2-yl)methyl)-N-((5-(methoxymethyl)-1H-pyrazol-3-yl)methyl)-N-methylbenzamide]	104	38.1	101
CN(Cc1cc(C(F)(F)F)[nH]n1)C(=O)c1ccc(C[C@@H]2CC[C@H]([C@H](O)c3ccc(Cl)nc3)N2)cc1 [Example 10-A, 4-(((2S,5R)-5-((R)-(6-chloropyridin-3-yl)(hydroxy)methyl)pyrrolidin-2-yl)methyl)-N-methyl-N-((5-(trifluoromethyl)-1H-pyrazol-3-yl)methyl)benzamide]	2	–	96
CN(Cc1cc(C(F)(F)F)[nH]n1)C(=O)c1ccc(C[C@@H]2CC[C@H]([C@H](O)c3ccccc3)N2)cc1 [Example 10-B, 4-(((2S,5R)-5-((R)-hydroxy(phenyl)methyl)pyrrolidin-2-yl)methyl)-N-methyl-N-((5-(trifluoromethyl)-1H-pyrazol-3-yl)methyl)benzamide]	5	3.2	110
CN(Cc1cc(C(F)(F)F)[nH]n1)C(=O)c1ccc(C[C@@H]2CC[C@H]([C@H](O)c3cccnc3)N2)cc1 [Example 10-H, 4-(((2S,5R)-5-((R)-hydroxy(pyridin-3-yl)methyl)pyrrolidin-2-yl)methyl)-N-methyl-N-((5-(trifluoromethyl)-1H-pyrazol-3-yl)methyl)benzamide]	22	13.9	98
CCOc1cc(CN(C)C(=O)c2ccc(C[C@@H]3CC[C@H]([C@H](O)c4ccc(Cl)nc4)N3)cc2)[nH]n1 [Example 11-A, 4-(((2S,5R)-5-((R)-(6-chloropyridin-3-yl)(hydroxy)methyl)pyrrolidin-2-yl)methyl)-N-((5-ethoxy-1H-pyrazol-3-yl)methyl)-N-methylbenzamide]	7	–	95
CN(Cc1n[nH]c2c1CCCC2)C(=O)c1ccc(C[C@@H]2CC[C@H]([C@H](O)c3ccc(Cl)nc3)N2)cc1 [Example 14-A, 4-(((2S,5R)-5-((R)-(6-chloropyridin-3-yl)(hydroxy)methyl)pyrrolidin-2-yl)methyl)-N-methyl-N-((4,5,6,7-tetrahydro-1H-indazol-3-yl)methyl)benzamide]	3	–	108

Source: patent US20160235727A1, “NOVEL PYRROLIDINE DERIVED BETA 3 ADRENERGIC RECEPTOR AGONISTS” (Merck Sharp & Dohme Corp., priority 2013, published 2016)
